Molecules are shown by their SMILES. pIC50: −log10 of the molar value. Active and inactive are the calls of the source. The rule behind the calls is not given here.

The subject of assay [1] is MDA-MB-231. Description: Induction of apoptosis in human MDA-MB-231 cells assessed as inhibition of PARP level. Format: functional, cell-based.
In assay [2] the test system is MDA-MB-231. Put plainly: Induction of cell cycle arrest in estrogen receptor […] human MDA-MB-231 cells assessed as accumulation of cells at S phase at 9.2 uM incubated for 24 hrs (reference value: 25.49%). In kind it is functional.
Assay [3] deals with MDA-MB-231. Description: Induction of cell cycle arrest in estrogen receptor negative human MDA-MB-231 cells assessed as accumulation of cells at G0/G1 phase at 9.2 uM incubated for 24 hrs (reference value: 61.44%). Format: functional.
The subject of assay [4] is MDA-MB-231. Put plainly: Induction of cell cycle arrest in estrogen receptor […] human MDA-MB-231 cells assessed as accumulation of cells at G2/M phase at 9.2 uM incubated for 24 hrs (reference value: 13.64%). Format: functional.
In assay [5] the test system is MCF7. Description: Induction of cell cycle arrest in estrogen receptor positive human MCF7 cells assessed as accumulation of cells at G2/M phase at 13.4 uM incubated for 24 hrs (reference value: 19.32%). In kind it is functional.
Assay [6] has as its system MCF7. Put plainly: Induction of cell cycle arrest in estrogen receptor positive human MCF7 cells assessed as accumulation of cells at G0/G1 phase at 13.4 uM incubated for 24 hrs (reference value: 60.49%). Format: functional.
Assay [7] concerns MCF7. Description: Antiproliferative activity against estrogen receptor positive human MCF7 cells assessed as inhibition of cell viability by MTT assay. Format: functional, cell-based. A general note: Tetrazolium dyes change colour on reduction, which living cells bring about.
Assay [8] has as its system MCF7. Put plainly: Induction of apoptosis in human MCF7 cells assessed as inhibition of PARP level. Format: functional, cell-based.
Assay [9] has as its system MCF7. Description: Induction of cell cycle arrest in estrogen receptor positive human MCF7 cells assessed as accumulation of cells at S phase at 13.4 uM incubated for 24 hrs (reference value: 20.84%). In kind it is functional.
For assay [10], the system named is MDA-MB-231. Description: Antiproliferative activity against estrogen receptor negative human MDA-MB-231 cells assessed as inhibition of cell viability by MTT assay. In kind it is functional, cell-based.
Assay [11] concerns MCF7. Description: Induction of cell cycle arrest in estrogen receptor positive human MCF7 cells assessed as accumulation of cells at G0/G1 phase at 15 uM incubated for 24 hrs (reference value: 60.49%). In kind it is functional.
Assay [12] has as its system MDA-MB-231. Description: Induction of cell cycle arrest in estrogen receptor […] human MDA-MB-231 cells assessed as accumulation of cells at S phase at 9 uM incubated for 24 hrs (reference value: 25.49%). In kind it is functional.
For assay [13], the system named is MDA-MB-231. Description: Induction of cell cycle arrest in estrogen receptor […] human MDA-MB-231 cells assessed as accumulation of cells at G2/M phase at 9 uM incubated for 24 hrs (reference value: 13.64%). In kind it is functional.
For assay [14], the system named is MCF7. Description: Induction of cell cycle arrest in estrogen receptor positive human MCF7 cells assessed as accumulation of cells at S phase at 15 uM incubated for 24 hrs (reference value: 20.84%). In kind it is functional.
The subject of assay [15] is MCF7. Put plainly: Induction of cell cycle arrest in estrogen receptor positive human MCF7 cells assessed as accumulation of cells at G2/M phase at 15 uM incubated for 24 hrs (reference value: 19.32%). In kind it is functional.
The test system of assay [16] is MDA-MB-231. Put plainly: Induction of cell cycle arrest in estrogen receptor negative human MDA-MB-231 cells assessed as accumulation of cells at G0/G1 phase at 9 uM incubated for 24 hrs (reference value: 61.44%). In kind it is functional.
Assay [17] deals with MCF7. Description: Induction of cell cycle arrest in estrogen receptor positive human MCF7 cells assessed as accumulation of cells at G2/M phase at 11 uM incubated for 24 hrs (reference value: 19.32%). In kind it is functional.
Assay [18] relates to MCF7. Put plainly: Induction of cell cycle arrest in estrogen receptor positive human MCF7 cells assessed as accumulation of cells at S phase at 11 uM incubated for 24 hrs (reference value: 20.84%). Format: functional.
For assay [19], the system named is MCF7. Put plainly: Induction of cell cycle arrest in estrogen receptor positive human MCF7 cells assessed as accumulation of cells at G0/G1 phase at 11uM incubated for 24 hrs (reference value: 60.49%). In kind it is functional.
Assay [20] has as its system MCF7. Description: Induction of cell cycle arrest in estrogen receptor positive human MCF7 cells assessed as accumulation of cells at S phase at 12.9 uM incubated for 24 hrs (reference value: 20.84%). In kind it is functional.
The test system of assay [21] is MDA-MB-231. Description: Induction of cell cycle arrest in estrogen receptor […] human MDA-MB-231 cells assessed as accumulation of cells at G2/M phase at 8.8 uM incubated for 24 hrs (reference value: 13.64%). In kind it is functional.
Assay [22] relates to MCF7. Put plainly: Induction of cell cycle arrest in estrogen receptor positive human MCF7 cells assessed as accumulation of cells at G0/G1 phase at 12.9 uM incubated for 24 hrs (reference value: 60.49%). Format: functional.
In assay [23] the test system is MDA-MB-231. Description: Induction of cell cycle arrest in estrogen receptor […] human MDA-MB-231 cells assessed as accumulation of cells at S phase at 8.8 uM incubated for 24 hrs (reference value: 25.49%). Format: functional.
Assay [24] deals with MCF7. Description: Induction of cell cycle arrest in estrogen receptor positive human MCF7 cells assessed as accumulation of cells at G2/M phase at 12.9 uM incubated for 24 hrs (reference value: 19.32%). In kind it is functional.
The subject of assay [25] is MDA-MB-231. Description: Induction of cell cycle arrest in estrogen receptor negative human MDA-MB-231 cells assessed as accumulation of cells at G0/G1 phase at 8.8 uM incubated for 24 hrs (reference value: 61.44%). In kind it is functional.

With `COc1ccc2c(c1)OC(C)(C)CC2C(c1ccccc1)c1ccccc1OCCN1CCCCC1` (stereo not given), the result with MDA-MB-231 [1] and with MCF7 [8] was Active. Further, the Activity with MDA-MB-231 [2] was 13.75%; in the assay on MDA-MB-231 [3], 74.38%; in the assay with MDA-MB-231 [4] it was 12.12%; with MCF7 [5], 17.14%; in the assay with MCF7 [6], 71.33%; with MCF7 [9], 11.86%. The pIC50 (in general, −log10 of the IC50, conventionally taken in molar units) in the assay with MCF7 [7] was 4.87; in the assay with MDA-MB-231 [10], 5.04.
With `COc1ccc2c(c1)OC(C)(C)C/C2=C(\c1ccccc1)c1ccccc1OCCN1CCCC1`, the pIC50 with MCF7 [7] is 4.72; with MDA-MB-231 [10] it was 4.89.
For `COc1ccc2c(c1)OC(C)(C)C/C2=C(\c1ccccc1)c1ccccc1O`, the negative logarithm of the IC50 (pIC50) was 4.80 in the assay with MCF7 [7] and 4.92 in the assay on MDA-MB-231 [10].
The corresponding values for `COc1ccc2c(c1)OC(C)(C)CC2C(c1ccc(OCCN(C)C)cc1)c1ccccc1F` (stereo not given) are 4.62 and 4.72.
In the same order, the values of `COc1ccc2c(c1)OC(C)(C)CC2C(c1ccccc1)c1ccc(OCCN2CCCC2)cc1` (stereo not given) are 4.88 and 5.02.
`COc1ccc2c(c1)OC(C)(C)C/C2=C(\c1ccccc1)c1ccccc1OCCN1CCCCC1`: the pIC50 in the assay with MCF7 [7] was 4.80; with MDA-MB-231 [10] it was 4.92.
Consider `CCN(CC)CCOc1ccccc1C(c1ccccc1)C1CC(C)(C)Oc2cc(OC)ccc21` (stereo not given), for which the Activity in the assay on MCF7 [11] is 61.57%; with MDA-MB-231 [12], 13.26%; with MDA-MB-231 [13] it was 11.71%; in the assay with MCF7 [14] it was 18.9%; with MCF7 [15], 20.33%; in the assay with MDA-MB-231 [16], 75.26%. Further, the outcome in the assay on MDA-MB-231 [1] and with MCF7 [8] was Active. Further, the pIC50 in the assay with MCF7 [7] is 4.82; in the assay with MDA-MB-231 [10], 5.05.
For the molecule `COc1ccc2c(c1)OC(C)(C)CC2C(c1ccccc1)c1ccccc1OCCN(C)C` (stereo not given), the pIC50 with MCF7 [7] was 4.87; in the assay with MDA-MB-231 [10] it was 5.07.
As for `CCN(CC)CCOc1ccccc1/C(=C1/CC(C)(C)Oc2cc(OC)ccc21)c1ccccc1`, the pIC50 was 4.82 in the assay with MCF7 [7] and 4.92 in the assay with MDA-MB-231 [10].
With `COc1ccc2c(c1)OC(C)(C)C/C2=C(\c1ccccc1)c1ccccc1OCC(C)N(C)C` (stereo not given), the Activity in the assay with MDA-MB-231 [12] is listed as 21.11%; with MDA-MB-231 [13], 12.94%; in the assay on MCF7 [17] it was 22.64%; in the assay on MCF7 [18] it was 20%; in the assay on MDA-MB-231 [16] it was 66.73%; with MCF7 [19], 58.31%. The result with MDA-MB-231 [1] and in the assay on MCF7 [8] was Active. Moreover, the pIC50 was 4.96 in the assay with MCF7 [7] and 5.05 with MDA-MB-231 [10].
In the case of `COc1ccc2c(c1)OC(C)(C)C/C2=C(/c1ccc(O)cc1)c1ccccc1F`, the pIC50 with MCF7 [7] was 4.66; in the assay with MDA-MB-231 [10], 4.77.
The corresponding values for `COc1ccc2c(c1)OC(C)(C)CC2C(c1ccccc1)c1ccccc1O` (stereo not given) are 4.87 and 4.98.
Turning to `COc1ccc2c(c1)OC(C)(C)CC2C(c1ccccc1)c1ccc(OCC(C)N(C)C)cc1` (stereo not given), the values for the pIC50 with MCF7 [7] and in the assay on MDA-MB-231 [10] were 4.82 and 4.95, respectively.
`COc1ccc2c(c1)OC(C)(C)C/C2=C(\c1ccccc1)c1ccccc1OCCN(C)C`: the Activity with MCF7 [20] was 17.85%; with MDA-MB-231 [21] it was 13.2%; with MCF7 [22], 63.58%; in the assay with MDA-MB-231 [23] it was 16.79%; with MCF7 [24], 19.26%; in the assay on MDA-MB-231 [25], 70.51%. Besides, the result with MDA-MB-231 [1] and in the assay on MCF7 [8] was Active. Moreover, the pIC50 in the assay with MCF7 [7] is 4.89; in the assay on MDA-MB-231 [10], 5.06.
With `COc1ccc2c(c1)OC(C)(C)C/C2=C(\c1ccccc1)c1ccc(O)cc1`, the pIC50 in the assay on MCF7 [7] was 4.90; in the assay on MDA-MB-231 [10], 5.02.
The corresponding values for `CCN(CC)CCOc1ccc(C(c2ccccc2)C2CC(C)(C)Oc3cc(OC)ccc32)cc1` (stereo not given) are 4.81 and 4.94.
Consider `COc1ccc2c(c1)OC(C)(C)CC2C(c1ccccc1)c1ccccc1OCC(C)N(C)C` (stereo not given), for which the pIC50 in the assay on MCF7 [7] is 4.85; in the assay with MDA-MB-231 [10], 4.96.
Consider `COc1ccc2c(c1)OC(C)(C)CC2C(c1ccccc1)c1ccc(OCCN(C)C)cc1` (stereo not given), for which the result in the assay on MCF7 [7] and in the assay on MDA-MB-231 [10] was inactive.
Turning to `COc1ccc2c(c1)OC(C)(C)CC2C(c1ccccc1)c1ccc(O)cc1` (stereo not given), the values for the negative-log IC50 (pIC50) in the assay on MCF7 [7] and in the assay on MDA-MB-231 [10] were 4.90 and 5.02, respectively.
Turning to `CC/C(=C(\c1ccccc1)c1ccc(OCCN(C)C)cc1)c1ccccc1` [TAMOXIFEN], the pIC50 in the assay with MDA-MB-231 [10] was 5.00.
Regarding `COc1ccc2c(c1)OC(C)(C)CC2C(c1ccccc1)c1ccc(OCCN2CCCCC2)cc1` (stereo not given), the pIC50 is 4.88 with MCF7 [7] and 5.07 in the assay on MDA-MB-231 [10].
For the molecule `COc1ccc2c(c1)OC(C)(C)CC2C(c1ccccc1)c1ccccc1OCCN1CCCC1` (stereo not given), the pIC50 in the assay on MCF7 [7] was 4.60; with MDA-MB-231 [10] it was 4.70.

Source of the values: ChEMBL document CHEMBL5576051, “Synthesis of 2,2-dimethyl-chroman-based stereochemically flexible and constrained anti-breast cancer agents” (Bioorg Med Chem Lett, 2024).
